Laboratory results: patent publication US20220056019A1, “FARNESOID X RECEPTOR AGONISTS AND USES THEREOF” (Metacrine, Inc., priority 2018, published 2022)

Target: T1, hFXR (Homo sapiens, UniProt Q96RI1)
T1 construct: expressed in transfected cells; host or cells: CV-1 cells
T1 sequence (Q96RI1 1-486): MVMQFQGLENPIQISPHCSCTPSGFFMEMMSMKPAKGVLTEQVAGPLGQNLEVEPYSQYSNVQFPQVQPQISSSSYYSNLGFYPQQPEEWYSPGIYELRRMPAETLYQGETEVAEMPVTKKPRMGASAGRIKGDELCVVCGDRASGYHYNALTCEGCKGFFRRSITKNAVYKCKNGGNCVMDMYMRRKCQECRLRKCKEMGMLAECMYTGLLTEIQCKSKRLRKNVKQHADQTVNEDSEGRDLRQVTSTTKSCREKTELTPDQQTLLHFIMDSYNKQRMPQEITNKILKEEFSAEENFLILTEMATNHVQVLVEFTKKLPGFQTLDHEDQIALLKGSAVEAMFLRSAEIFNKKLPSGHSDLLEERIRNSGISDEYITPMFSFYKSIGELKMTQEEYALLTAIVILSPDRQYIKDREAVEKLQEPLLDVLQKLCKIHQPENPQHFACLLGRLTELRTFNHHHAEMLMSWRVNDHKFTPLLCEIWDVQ
T1 sequence (P19793 1-462 partner): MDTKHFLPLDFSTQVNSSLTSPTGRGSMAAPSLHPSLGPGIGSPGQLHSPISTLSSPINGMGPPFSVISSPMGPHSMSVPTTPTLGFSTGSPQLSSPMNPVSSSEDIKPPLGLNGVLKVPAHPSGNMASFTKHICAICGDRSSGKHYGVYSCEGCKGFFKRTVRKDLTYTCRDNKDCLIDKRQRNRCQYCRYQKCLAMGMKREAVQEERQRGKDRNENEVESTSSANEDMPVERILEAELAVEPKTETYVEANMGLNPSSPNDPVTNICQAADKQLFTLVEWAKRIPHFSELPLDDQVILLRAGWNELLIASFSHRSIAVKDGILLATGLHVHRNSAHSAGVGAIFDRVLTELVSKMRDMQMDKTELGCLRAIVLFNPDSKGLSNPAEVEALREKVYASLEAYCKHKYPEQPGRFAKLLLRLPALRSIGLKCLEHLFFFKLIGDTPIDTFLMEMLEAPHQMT
Test: In Vitro FXR Assay (TK): TK-ECRE-luc reporter in transfected CV-1 cells
Format: cell-based
Conditions: 18 hrs incubation, luminescence
Experimental: Example B-1: In Vitro FXR Assay (TK)
CV-1 cells were seeded at a density of 2,000,000 cells in a T175 flask with DMEM+10% charcoal double-stripped FBS and incubated at 37° C. in 5% CO2 for 18 h (O/N).
After 18 h of incubation, the medium in the T175 flask was changed with fresh DMEM+10% charcoal super-stripped serum. In a polypropylene tube, 2500 μL OptiMEM (Life Technologies, Cat #31985-062) was combined with expression plasmids for hFXR, hRXR, TK-ECRE-luc and pCMX-YFP. The tube was then briefly vortexed and incubated at room temperature for 5 minutes. Transfection reagent (X-tremeGENE HP from Roche, Cat #06 366 236 001) was added to the OptiMEM/plasmid mixture vortexed and incubated at room temperature for 20 minutes. Following incubation, the transfection reagent/DNA mixture complex was added to cells in the T175 flask and the cells were incubated at 37° C. in 5% CO2 for 18 h (O/N).
Compounds were serially diluted in DMSO and added to transfected CV-1 cells. The cells were then incubated for 18 hrs. The next day cells were lysed and examined for luminescence.

Structure (SMILES): COc1ccc([C@H]2CC[C@H](CN(c3cccc(-c4cnn(C(C)C)c4)c3)C(=O)[C@H]3CC[C@H](NC(=O)OC4COC4)CC3)CC2)cc1C [Compound 6.05, Oxetan-3-yl (trans-4-((3-(1-isopropyl-1H-pyrazol-4-yl)phenyl)((trans-4-(4-methoxy-3-methylphenyl)cyclohexyl)meth-yl)carbamoyl)cyclohexyl)carbamate]
- EC50: ≤ 50 nM

Structure (SMILES): COc1ccc(C23CCC(CN(c4cc(-c5noc(C(C)C)n5)ccn4)C(=O)[C@H]4CC[C@H](OC(=O)N5CC(O)C5)CC4)(CC2)CC3)cc1C [Compound 26.14, 4-((4-(5-Isopropyl-1,2,4-oxadiazol-3-yl)pyridin-2-yl)((4-(4-methoxy-3-methylphenyl)bicyclo[2.2.2]octan-1-yl)methyl)carbamoyl)cyclohexyl trans-3-hydroxyazetidine-1-carboxylate]
- EC50: ≤ 50 nM

Structure (SMILES): COc1ccc([C@H]2CC[C@H](CN(c3cc(-c4cnn(C(C)C)c4)ccn3)C(=O)[C@H]3CC[C@H](OC(=O)N4CCN(C)CC4)CC3)CC2)cc1C [Compound 2.14, trans-4-((4-(1-Isopropyl-1H-pyrazol-4-yl)pyridin-2-yl)(((trans)-4-(4-methoxy-3-methylphenyl)cyclohexyl)methyl)carbamoyl) cyclohexyl4-methylpiperazine-1-carboxylate]
- EC50: ≤ 50 nM

Structure (SMILES): CC(C)c1ccc(C23CCC(CN(c4cncc(-c5cnn(C(C)C)c5)n4)C(=O)[C@H]4CC[C@H](OC(=O)N5CC(O)C5)CC4)(CC2)CC3)cc1 [Compound 4.63, 4-((6-(1-Isopropyl-1H-pyrazol-4-yl)pyrazin-2-yl) ((4-(4-isopropylphenyl)bicyclo[2.2.2]octan-1-yl)methyl)carbamoyl)(trans-cyclohexyl) 3-hydroxyazetidine-1-carboxylate]
- EC50: ≤ 50 nM

Structure (SMILES): COc1ccc(C23CCC(CN(c4cc(-n5cc(C(C)C)cn5)ccn4)C(=O)[C@H]4CC[C@H](OC(=O)N5CC(O)C5)CC4)(CC2)CC3)cc1C [Compound 23.14, 4-((4-(4-Isopropyl-1H-pyrazol-1-yl)pyridin-2-yl)((4-(4-meth-oxy-3-methylphenyl)bi-cyclo[2.2.2]octan-1-yl)meth-yl)carbamoyl)cyclohexyl trans-3-hydroxyazetidine-1-carboxylate]
- EC50: ≤ 50 nM

Structure (SMILES): COc1ccc([C@H]2CC[C@H](CN(c3cc(-c4cnn(C(C)C)c4)ccn3)C(=O)[C@H]3CC[C@H](OC(=O)NCC(F)(F)CO)CC3)CC2)cc1C [Compound 2.34, trans-4-((4-(1-Isopropyl-1H-pyrazol-4-yl)pyridin-2-yl)(((trans)-4-(4-methoxy-3-methylphenyl)cyclohexyl)methyl)carbamoyl) cyclohexyl(2,2-difluoro-3-hydroxypropyl)carbamate]
- EC50: ≤ 50 nM

Structure (SMILES): COc1ccc([C@H]2CC[C@H](CN(c3cc(-c4cnn(C(C)C)c4)ccn3)C(=O)[C@H]3CC[C@H](OC(=O)NC[C@H](F)CO)CC3)CC2)cc1C [Compound 2.30, trans-4-((4-(1-Isopropyl-1H-pyrazol-4-yl)pyridin-2-yl)(((trans)-4-(4-methoxy-3-methylphenyl)cyclohexyl)methyl)carbamoyl) cyclohexyl((S)-2-fluoro-3-hydroxypropyl)carbamate]
- EC50: ≤ 50 nM

Structure (SMILES): COc1ccc(C23CCC(CN(c4cc(-c5cnn(C(C)C)c5)cc(Cl)n4)C(=O)[C@H]4CC[C@H](OC(=O)N5CC(O)C5)CC4)(CC2)CC3)cc1C [Compound 4.40, 4-((6-Chloro-4-(1-isopropyl-1H-pyrazol-4-yl)pyridin-2-yl)((4-(4-methoxy-3-methylphenyl)bicyclo[2.2.2]octan-1-yl)methyl)carbamoyl) cyclohexyl trans-3-hydroxyazetidine-1-carboxylate]
- EC50: ≤ 50 nM

Structure (SMILES): COc1ccc([C@H]2CC[C@H](CN(c3cc(-c4cnn(C(C)C)c4)ccn3)C(=O)[C@H]3CC[C@H](OC(=O)NCCCO)CC3)CC2)cc1C [Compound 2.19, trans-4-((4-(1-Isopropyl-1H-pyrazol-4-yl)pyridin-2-yl) ((trans-4-(4-methoxy-3-methylphenyl)cyclohexyl)methyl)carbamoyl) cyclohexyl(3-hydroxypropyl)carbamate]
- EC50: ≤ 50 nM

Structure (SMILES): COc1ccc([C@H]2CC[C@H](CN(c3cc(-c4cnn(C(C)C)c4)ccn3)C(=O)[C@H]3CC[C@H](OC(=O)NC4COC4)CC3)CC2)cc1C [Compound 2.51]
- EC50: ≤ 50 nM

Structure (SMILES): COc1ccc([C@H]2CC[C@H](CN(c3cc(-c4cnc(C5CC5)s4)ccn3)C(=O)[C@H]3CC[C@H](OC(=O)N4CCN(C)CC4)CC3)CC2)cc1C [Compound 2.27, trans-4-((4-(2-Cyclopropylthiazol-5-yl)pyridin-2-yl)(((trans)-4-(4-methoxy-3-methylphenyl)cyclohexyl)methyl)carbamoyl)cyclohexyl 4-methylpiperazine-1-carboxylate]
- EC50: ≤ 50 nM

Structure (SMILES): COc1ccc(C23CCC(CN(c4cc(-c5coc(C6CC6)n5)ccn4)C(=O)[C@H]4CC[C@H](NC(=O)CO)CC4)(CC2)CC3)cc1C [Compound 9.11, (trans)-N-(4-(2-Cyclopropyloxazol-4-yl)pyridin-2-yl)-4-(2-hydroxyacetamido)-N-((4-(4-methoxy-3-methylphenyl)bicyclo[2.2.2]octan-1-yl)methyl)cyclohexanecarboxamide]
- EC50: ≤ 50 nM

Structure (SMILES): COc1ccc(C23CCC(CN(c4cc(-c5cnn(C(C)C)c5)ccn4)C(=O)[C@H]4CC[C@H](OC(=O)N5CC(S(C)(=O)=O)C5)CC4)(CC2)CC3)cc1C [Compound 4.11, 4-((4-(1-Isopropyl-1H-pyrazol-4-yl)pyridin-2-yl)((4-(4-methoxy-3-methylphenyl)bicyclo [2.2.2]octan-1-yl)methyl)carbamoyl)cyclohexyl 3-(methylsulfonyl) azetidine-trans-1-carboxylate]
- EC50: ≤ 50 nM

Structure (SMILES): COc1ccc(C23CCC(CN(c4cc(-c5nnc(C(C)C)o5)ccn4)C(=O)[C@H]4CC[C@H](OC(=O)N5CC(O)C5)CC4)(CC2)CC3)cc1C [Compound 26.12, 4-((4-(5-Isopropyl-1,3,4-oxadiazol-2-yl)pyridin-2-yl)((4-(4-methoxy-3-methylphenyl)bicyclo[2.2.2]octan-1-yl)methyl)carbamoyl)cyclohexyl trans-3-hydroxyazetidine-1-carboxylate]
- EC50: 50 to 1000 nM

Structure (SMILES): COc1ncc([C@H]2CC[C@H](CN(c3cc(-c4coc(C5CC5)n4)ccn3)C(=O)[C@H]3CC[C@H](OC(=O)N4CC(N(C)C)C4)CC3)CC2)cc1Cl [Compound 1.06, trans-4-((((trans)-4-(5-Chloro-6-methoxypyridin-3-yl)cyclohexyl)methyl)(4-(2-cyclopropyloxazol-4-yl)pyridin-2-yl)carbamoyl)cyclohexyl 3-(dimethylamino)azetidine-1-carboxylate]
- EC50: ≤ 50 nM

Structure (SMILES): COc1ccc([C@H]2CC[C@H](CN(c3cccc(-c4cnn(C(C)C)c4)c3)C(=O)[C@H]3CC[C@H](OC(=O)NCCCF)CC3)CC2)cc1C [Compound 5.04, trans-4-((3-(1-Isopropyl-1H-pyrazol-4-yl)phenyl)(((trans)-4-(4-methoxy-3-methylphenyl)cyclohexyl)methyl)carbamoyl)cyclohexyl (3-fluoropropyl)carbamate]
- EC50: ≤ 50 nM

Structure (SMILES): COc1ccc([C@H]2CC[C@H](CN(c3cc(-c4coc(C(C)C)n4)ccn3)C(=O)[C@H]3CC[C@H](OC(=O)N4CCN(C)CC4)CC3)CC2)cc1C [Compound 2.25, trans-4-((4-(2-Isopropyloxazol-4-yl)pyridin-2-yl)(((trans)-4-(4-methoxy-3-methylphenyl)cyclohexyl)methyl)carbamoyl)cyclohexyl 4-methylpiperazine-1-carboxylate]
- EC50: ≤ 50 nM

Structure (SMILES): COCC(=O)N[C@H]1CC[C@H](C(=O)N(CC23CCC(c4ccc(OC)c(C)c4)(CC2)CC3)c2cc(-c3cnn(C(C)C)c3)ccn2)CC1 [Compound 9.01, trans-N-(4-(1-Isopropyl-1H-pyrazol-4-yl)pyridin-2-yl)-N-((4-(4-methoxy-3-methylphenyl)bicyclo[2.2.2]octan-1-yl)methyl)-4-(2-methoxyacetamido)cyclohexanecar-boxamide]
- EC50: ≤ 50 nM
